From patent US20070155752A1, “2-Amino-o4-substituted pteridines and their use as inactivators of o6-alkylguanine-dna alkyltransferase” (Government of the United States of America,, priority 2004, published 2007)
Like-named read-outs stand apart in the source and are kept apart here. Marks after values point to notes of the source that are not given here.

Legend:
HT29 cells = conditions: for Enhancement of HT29 cell killing by BCNU / ED90, concentration required to kill 90% of HT29 cells with BCNU: BCNU 40 μM
[1] = test system: KB nasopharyngeal tumor cells; test: Colony-forming cytotoxicity assay with BCNU, KB cells; assay type: cell-based; conditions: 40 μM or 80 μM BCNU, 2 hr exposure in folate free medium
Procedure: (§1) 2-Amino-O^4-benzyl-6-carboxypteridine (5) is not effective probably because the negative charge on the molecule at physiological pH prevents its easy entry into cells. However, even though O^4-benzylfolic acid is also anionic at physiological pH, it does enhance cell killing by BCNU. Furthermore, its effectiveness as an adjuvant is a function of the cells' ability to express the α-form of the folic acid receptor. […] KB cell killing by 80 μM BCNU in combination with 7 is also illustrated. For these experiments (FIG. 2) cells were grown in RPMI medium, were incubated with 7 for 2 hr and were then treated with either 40 μM BCNU (A549, HT29 and KB cells) or 80 μM BCNU (KB cells) for 2 hr. The medium was then replaced with fresh medium containing no 7. Cells were kept for 16-18 hr before being replated. […]
(§2) Cells were grown either in Dulbecco's modified Eagle's medium supplemented with 10% fetal bovine serum plus 1.5 mM glutamine and 50 μg/mL gentamycin (HT29) or in RPMI 1640 medium in the presence of 10% fetal bovine serum (HT29, A549 and KB cells). The effect of AGT inactivators on the sensitivity of cells to BCNU was determined using a colony-forming assay.^13 Cells were plated at a density of 10^6 in 25-cm^2 flasks and 24 h later were incubated with different concentrations of AGT inactivator for 2 h before exposure to 40 μM (HT29 cells and A549 cells) or 80 μM (KB cells) of BCNU for 2 h. […]

A549 lung tumor cells = test: Colony-forming cytotoxicity assay with BCNU, A549 cells; assay type: cell-based; conditions: 40 μM BCNU, 2 hr exposure in folate free medium
Procedure: as §1, §2

[2] = target: T1, P140K mutant alkyltransferase (Homo sapiens, UniProt P16455, P140K); conditions: cited from earlier work
T1 construct: His tag
T1 sequence (P16455 1-207 P140K): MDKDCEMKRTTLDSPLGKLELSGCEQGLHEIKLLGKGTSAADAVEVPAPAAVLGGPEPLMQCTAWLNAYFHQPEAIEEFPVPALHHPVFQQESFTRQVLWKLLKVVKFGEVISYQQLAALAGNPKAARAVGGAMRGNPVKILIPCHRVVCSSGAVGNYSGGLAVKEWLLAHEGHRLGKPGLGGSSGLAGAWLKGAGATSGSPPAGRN

[3] = RPMI medium, inactivator present before and during BCNU only
[4] = Dulbecco's medium, inactivator present before, during and after BCNU for 16-18 hours

Row | Structure (SMILES) | Enhancement of HT29 cell killing by BCNU (HT29 cells) | ED90, concentration required to kill 90% of HT29 cells with BCNU (HT29 cells; [3]) | ED90, concentration required to kill 90% of HT29 cells with BCNU (HT29 cells; [4]) | other results
1 | Nc1nc(OCc2ccccc2)c2nc(CNc3ccc(C(=O)N[C@@H](CCC(=O)O)C(=O)O)cc3)cnc2n1 [Compound 7, O^4-Benzylfolic acid] | capable of enhancing | 24^c,d μM |  | ED90, concentration required to kill 90% of HT29 cells with BCNU (HT29 cells; RPMI folate-free medium): 15 µM; Effectiveness as an adjuvant for cell killing by BCNU (FIG. 2) (HT29 cells; HT29 cells, 40 μM BCNU, 2 hr exposure in folate free medium): somewhat greater; Effectiveness as an adjuvant for cell killing by BCNU (FIG. 2) [1]: greatest; Effectiveness as an adjuvant for cell killing by BCNU (FIG. 2) (A549 lung tumor cells): lowest
2 | Nc1nc(OCc2ccccc2)c2nc(C(=O)O)cnc2n1 [Compound 5, 2-Amino-O^4-benzylpteridine-6-carboxylic acid] | not effective |  | inactive | 
3 | Nc1nc(OCc2ccccc2)c2nc(C=O)cnc2n1 [Compound 6, 2-Amino-O^4-benzyl-6-formylpteridine] | capable of enhancing | 0.7^c μM |  | 
4 | Nc1nc(OCc2ccccc2)c2nccnc2n1 [Compound 1, 2-amino-O^4-benzylpteridine] | capable of enhancing |  | 0.2^b μM | 
5 | Nc1nc(OCc2ccccc2)c2nc(CO)cnc2n1 [Compound 4, 2-Amino-O^4-benzyl-6-hydroxymethylpteridine] | capable of enhancing |  | 0.7^b μM | 
6 | Nc1nc(OCc2ccccc2)c2nc[nH]c2n1 [O^6-benzylguanine, reference compound] |  | 0.7^c μM | 0.4^b μM | Inactivation of the P140K mutant alkyltransferase [2]: essentially resistant
7 | Cc1nc2nc(N)nc(OCc3ccccc3)c2nc1C [Compound 2, 2-amino-O^4-benzyl-6,7-dimethylpteridine] | capable of enhancing |  | 0.6^b μM | 
